Measured values: paper PMC4234265, “The C-terminus of nisin is important for the ABC transporter NisFEG to confer immunity in Lactococcus lactis” (MicrobiologyOpen, 2014)

What was measured:
NZ9000Erm strain = experiment: Growth inhibition (IC50) of nisin and variants, sensitive strain; type: cell-based, Lactococcus lactis; settings: from IC50 values against NZ9000Erm
NZ9000NisFEG strain = experiment: Growth inhibition (IC50) of nisin and variants, NisFEG-expressing strain; type: cell-based, Lactococcus lactis; settings: for Fold of immunity mediated by NisFEG: IC50 against NZ9000NisFEG compared with IC50 against NZ9000Erm; for Activity of NisFEG reduced to: fold of immunity for the variant relative to wild-type nisin
Experimental: The NZ9000NisFEG and NZ9000NisFH181AEG strains were grown in GM17 media supplemented with 5 μg/mL chloramphenicol to an OD600 of 0.8. By the addition of nisin (final concentration of 1 ng/mL), the expression was induced and the culture was further grown overnight. After 15 h, the cells were diluted to an OD600 of 0.1 in fresh media supplemented with 5 μg/mL chloramphenicol and with the inducer nisin (10 ng/mL).
The NZ9000, NZ9000NisFEG, and NZ9000NisFH181AEG strains were grown overnight in GM17 media supplemented with 5 μg/mL chloramphenicol in the presence of 1 ng/mL nisin. The diluted cells (final OD600 was 0.1) were incubated with a serial dilution of nisin or its variants with 50 mmol/L lactic acid in a 96 well microtiter plate. The total volume in each well was 200 μL, consisting of 50 μL nisin and 150 μL GM17 containing the corresponding L. lactis strain.
The plate was incubated at 30°C. After 5 h, the optical density was measured at 620 nm via 96-plate reader BMG. The normalized optical density was plotted against the logarithm of the nisin concentration in order to calculate the IC50 of nisin and the data was evaluated using the following equation (1): [drawing 1] 1
The IC50 value is the concentration of nisin were the growth of the L. lactis strain is inhibited by 50% as described in more detail earlier (Abts et al. [2011]).

SMILES	Fold reduction of antimicrobial activity compared to wild-type nisin (NZ9000Erm strain) [fold]	Fold of immunity mediated by NisFEG (NZ9000NisFEG strain) [fold]	Reduction of NisFEG activity / fold of immunity (NZ9000NisFEG strain; decrease relative to wild-type nisin) [%]	Activity of NisFEG reduced to (NZ9000NisFEG strain) [%]
C=C1NC(=O)[C@H]([C@@H](C)CC)NC(=O)[C@H](NC(=O)/C(=C/C)NC(=O)[C@@H](N)[C@@H](C)CC)CSC[C@@H](C(=O)N[C@H]2C(=O)N3CCC[C@H]3C(=O)NCC(=O)N[C@H](C(=O)N[C@@H](CCCCN)C(=O)N[C@H]3C(=O)NCC(=O)N[C@@H](C)C(=O)N[C@@H](CC(C)C)C(=O)N[C@@H](CCSC)C(=O)NCC(=O)N[C@H](C(=O)N[C@@H](CC(N)=O)C(=O)N[C@@H](CCSC)C(=O)N[C@@H](CCCCN)C(=O)N[C@H]4C(=O)N[C@@H](C)C(=O)N[C@H]5C(=O)N[C@@H](CS[C@H]4C)C(=O)N[C@@H](Cc4c[nH]cn4)C(=O)N[C@H](C(=O)O)CS[C@H]5C)CS[C@H]3C)CS[C@H]2C)NC(=O)[C@H](CC(C)C)NC1=O [Nisin1-28]	20	3.8	50	60
C=C1NC(=O)[C@H]([C@@H](C)CC)NC(=O)[C@H](NC(=O)/C(=C/C)NC(=O)[C@@H](N)[C@@H](C)CC)CSC[C@@H](C(=O)N[C@H]2C(=O)N3CCC[C@H]3C(=O)NCC(=O)N[C@H](C(=O)N[C@@H](CCCCN)C(=O)N[C@H]3C(=O)NCC(=O)N[C@@H](C)C(=O)N[C@@H](CC(C)C)C(=O)N[C@@H](CCSC)C(=O)NCC(=O)N[C@H](C(=O)N[C@@H](CC(N)=O)C(=O)N[C@@H](CCSC)C(=O)N[C@@H](CCCCN)C(=O)O)CS[C@H]3C)CS[C@H]2C)NC(=O)[C@H](CC(C)C)NC1=O [Nisin1-22]	25	2.5	–	33
